In patent US11390631B1, “Benzodiazepine derivatives as RSV inhibitors” (priority 2015, dated 2022):
pEC50: −log10 of the molar value. Where two headings read alike, the source gives them in different places.

How the values were obtained:
[1] = test system: Human RSV-A (“Long” strain); test: RSV-A assay: inhibition of cytopathic effect in Hep-2 cells, ATPlite readout; type: cell-based, Human respiratory syncytial virus (HRSV); details: human respiratory syncytial virus, read-out: Human RSV-A (“Long” strain) EC50
Procedure, shortened: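 Hep-2 cells (8,000/well) were infected with RSV-A Long at MOI 0.1 alongside duplicate 2-fold compound dilutions. After 5 days, cell viability was read by ATPlite luminescence to give EC50. CC50 came from a parallel plate without virus.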

[2] = test system: RSV-B, genotype B, strain 9320; test: RSV-B assay: A549 cells infected with RSV-B, qPCR or ATPlite readout; type: cell-based, Human respiratory syncytial virus (HRSV); details: human respiratory syncytial virus
Source text: Hep-2 cells, (originally derived from tumors grown in irradiated-cortisonised weanling rats that had been injected with epidermoid carcinoma tissue from a person's larynx, but later found to be indistinguishable from HeLa cells by PCR DNA analysis), were used for the culturing of genotype B, strain 9320. Flasks were inoculated with RSV-B and viral stocks were collected once cytopathic effect (CPE) was greater than […]. Viral stocks in 25% o sucrose media were snap frozen using liquid nitrogen to increase viral stability. Viral stock titers were quantified by tissue culture infectious dose 50% o (TCID50) using 8,000 cells per well and 5-fold viral dilutions across a 96-well plate, cultured for 4 days. Viral stock titers were also quantified by a plaque forming unit assay, as described elsewhere.
The assay is run as follows: A549 cells (originally derived through explant culture from a person's carcinomatous lung tissue) are seeded into the inner 60 wells of a 96-well plate at 3,000 cells per well in a volume of 50 μL using A549 growth media (F-12K Media, 1% Penn/Strep, 1% nonessential amino acids, 10% heat-inactivated FBS). 2-fold serial dilutions of control and test compounds are added to the wells in duplicate in a total volume of 25 μL. Viral stock is then added to the wells at a multiplicity of infection (MOI) of 0.5 in a volume of 25 μL, bringing the total volume of each well to 100 μL. The MOI is calculated using the PFU/mL, or TCID50 if unavailable. Each 96-well plate has a control column of 6 wells with cells and virus but no compound (negative control, max CPE), a column with cells but no compound or virus (positive control, minimum CPE), and a column with no cells or virus or compound (background plate/reagent control). The control wells with cells but no virus are given an additional 25 uL of growth media containing an equal quantity of sucrose as those wells receiving the viral stock in order to keep consistent in media and volume conditions. The outer wells of the plate are filled with 125 μL of moat media (DMEM, 1% Penn/Strep) to act as a thermal and evaporative moat around the test wells. 6 days post infection, the plates are read using qPCR or ATP lite (50 uL added per well), which quantifies the amount of ATP (a measure of cell health) present in each well. Assay plates treated with APTlite are read using the Envision luminometer. […] EC50 ranges are as follows: A<0.4 μM; B 0.4-0.8 μM; C>0.8 μM.

[3] = Cytotoxicity on parallel plate without virus, ATPlite readout; type: cell-based; details: human, Hep-2 cells (no virus), Hep-2 cells without virus, 5-day incubation
Protocol: Following extensive parameter testing, the final assay is run as follows: Hep-2 cells are seeded into the inner 60 wells of a 96-well plate at 8,000 cells per well in a volume of 50 μL using Growth Media (DMEM without phenol red, 1% L-Glut, 1% Penn/Strep, 1% nonessential amino acids, 10% heat-inactivated FBS). 2-fold serial dilutions of control and test compounds are added to the wells in duplicate in a total volume of 25 μL. Viral stock is then added to the wells at a multiplicity of infection (MOI) of 0.1 in a volume of 25 μL, bringing the total volume of each well to 100 μL. The MOI is calculated using the PFU/mL, or TCID50 if unavailable. Each 96-well plate has a control column of 6 wells with cells and virus but no compound (negative control, max CPE), a column with cells but no compound or virus (positive control, minimum CPE), and a column with no cells or virus or compound (background plate/reagent control). The control wells with cells but no virus are given an additional 25 uL of growth media containing an equal quantity of sucrose as those wells receiving the viral stock in order to keep consistent in media and volume conditions. The outer wells of the plate are filled with 125 μL of moat media (DMEM, 1% Penn/Strep) to act as a thermal and evaporative moat around the test wells. Following a 5-day incubation period, the plates are read using ATPlite (50 uL added per well), which quantifies the amount of ATP (a measure of cell health) present in each well. Assay plates are read using the Envision luminometer. In parallel, cytotoxicity is examined on an additional 96-well plate treated in an identical manner, but substituting the 25 μL of viral stock for 25 μL of growth media. […] EC50 ranges are as follows: A<0.4 μM; B 0.4-0.8 μM; C>0.8 μM and CC50 ranges are as follows: A>50 μM; B 10-50 μM; C<10 μM.

[4] = A549, read-out: Human RSV-B EC50
[5] = 120 h, Hep-2 cells, MOI 0.1, 5-day incubation, ATPlite
[6] = A549 cells infected with RSV-B strain 9320, MOI 0.5, read-out: Human RSV-B EC50

Row | Structure (SMILES) | pEC50 ([1]; HEp-2, 120 h) | pEC50 [2, 4] | pEC50 [1, 5] | pEC50 [2, 6] | CC50 at 5 days [3] [nM]
1 | O=C1Nc2ccccc2C(c2ccccc2)=N[C@@H]1Nc1nnc(-c2ccc(C(F)(F)F)nc2N2CC3CCC(C2)O3)o1 [Example 276] | 6.10 to 6.40 | < 6.10 | – | – | –
2 | O=C1Nc2ccccc2C(c2ccccc2)=N[C@@H]1Nc1nnc(-c2ncsc2N2CCOCC2)o1 [Example 336] | > 6.40 | > 6.40 | – | – | –
3 | O=C1Nc2ccccc2C(c2ccccc2)=NC1Nc1nnc(-c2cccnc2N2CCOCC2)o1 (stereo not shown) [Example 120] | > 6.40 | 6.10 to 6.40 | – | – | –
4 | Cc1nc(N2CCOCC2)c(-c2nnc(N[C@H]3N=C(c4ccccc4)c4ccccc4NC3=O)o2)cc1C#N [Example 158] | > 6.40 | > 6.40 | – | – | –
5 | O=C1Nc2ccccc2C(c2ccccc2)=NC1Nc1nnc(-c2ncc(C(F)(F)F)cc2N2CCOCC2)o1 (stereo not shown) [Example 139] | – | – | > 6.40 | > 6.40 | –
6 | CN(C)c1ccc(-c2nnc(NC3N=C(c4ccccc4)c4ccccc4NC3=O)o2)nc1 (stereo not shown) [Example 108] | < 6.10 | < 6.10 | – | – | –
7 | O=C1Nc2c(F)cccc2C(c2ccccc2)=N[C@@H]1Nc1nnc(-c2ccccc2N2CCOCC2)o1 [Example 355a] | > 6.40 | > 6.40 | – | – | –
8 | Cc1ccc(-c2nnc(NC3N=C(c4ccccc4)c4ccccc4NC3=O)o2)c(N2CCOCC2)n1 (stereo not shown) [Example 144] | > 6.40 | > 6.40 | – | – | –
9 | O=C1Nc2ccccc2C(c2ccccc2)=NC1Nc1nnc(-c2ccc(-n3cccn3)cc2)[nH]1 (stereo not shown) [Example 364] | > 6.40 | 6.10 to 6.40 | – | – | –
10 | C[C@H]1CN(c2ncccc2-c2nnc(NC3N=C(c4ccccc4)c4ccccc4NC3=O)o2)CCO1 (stereo partly shown) [Example 263] | 6.10 to 6.40 | 6.10 to 6.40 | – | – | –
11 | O=C1Nc2ccccc2C(c2ccccc2)=N[C@@H]1Nc1nnc(-c2oc3ccccc3c2N2CCOCC2)o1 [Example 179] | > 6.40 | > 6.40 | – | – | –
12 | O=C1Nc2ccccc2C(c2ccccc2)=N[C@@H]1Nc1nnc(-c2nc(-c3ccncc3)sc2N2CCOCC2)o1 [Example 429] | > 6.40 | > 6.40 | – | – | –
13 | Cc1ccc(-c2nnc(N[C@H]3N=C(c4ccccc4)c4ccccc4NC3=O)o2)c(N2CCOCC2)n1 [Example 252] | > 6.40 | > 6.40 | – | – | –
14 | N#Cc1cnc(-c2nnc(N[C@H]3N=C(c4ccccc4)c4ccccc4NC3=O)o2)c(N2CCOCC2)c1 [Example 160] | – | > 6.40 | – | – | –
15 | CN1CCN(c2ccccc2-c2nnc(NC3N=C(c4ccccc4)c4ccccc4NC3=O)o2)CC1 (stereo not shown) [Example 224] | < 6.10 | > 6.40 | – | – | –
16 | N#Cc1ccc(-c2nnc(NC3N=C(c4ccccc4)c4ccccc4NC3=O)o2)c(N2CCOCC2)c1 (stereo not shown) [Example 131] | > 6.40 | > 6.40 | – | – | –
17 | O=C1Nc2ccccc2C(c2ccccc2)=N[C@@H]1Nc1nnc(-c2ncc(F)cc2N2CCOCC2)o1 [Example 136, (S)-3-((5-(5-fluoro-3-morpholinopyridin-2-yl)-1,3,4-oxadiazol-2-yl)amino)-5-phenyl-1,3-dihydro-2H-benzo[e][1,4]diazepin-2-one] | > 6.40 | > 6.40 | – | – | –
18 | O=C1Nc2ccccc2C(c2ccccc2)=NC1Nc1nnc(-c2ccccc2N2CCOCC2)o1 (stereo not shown) [Example 125] | – | 6.10 to 6.40 | – | – | –
19 | O=C1Nc2ccccc2C(c2ccccc2)=N[C@@H]1Nc1nnc(-c2ncc(C3CC3)cc2N2CCOCC2)o1 [Example 169] | > 6.40 | > 6.40 | – | – | –
20 | O=C1Nc2ccccc2C(c2ccccc2)=N[C@@H]1Nc1nnc(-c2cccnc2N2CCOCC2)o1 [Example 242] | > 6.40 | > 6.40 | – | – | –
21 | O=C1Nc2ccccc2C(c2ccccc2)=N[C@@H]1Nc1nnc(-c2ncc(C(F)(F)F)cc2N2CCOCC2)o1 [Example 253] | – | – | > 6.40 | > 6.40 | –

Row | Structure (SMILES) | pEC50 ([1]; HEp-2, 120 h) | pEC50 [2, 4] | pEC50 [1, 5] | pEC50 [2, 6] | CC50 at 5 days [3] [nM]
22 | O=C1Nc2ccccc2C(c2ccccc2)=N[C@@H]1Nc1nnc(-c2nc(-c3ccccc3)sc2N2CCOCC2)o1 [Example 340] | > 6.40 | > 6.40 | – | – | –
23 | CC(C)n1cc(-c2nnc(N[C@H]3N=C(c4ccccc4)c4ccccc4NC3=O)o2)c(N2CCOCC2)n1 [Example 403] | > 6.40 | > 6.40 | – | – | –
24 | O=C1Nc2ccccc2C(c2ccccc2)=N[C@@H]1Nc1nnc(-c2nc(C3CCC3)sc2N2CCOCC2)o1 [Example 387] | > 6.40 | > 6.40 | – | – | –
25 | O=C1Nc2ccccc2C(c2ccccc2)=NC1Nc1nnc(-c2ccc(N3CCOCC3)cc2)o1 (stereo not shown) [Example 124] | – | > 6.40 | – | – | –
26 | O=C1Nc2ccccc2C(c2ccccc2)=NC1Nc1nnc(-c2ccc(Cl)o2)o1 (stereo not shown) [Example 20] | < 6.10 | – | – | – | > 50000
27 | Cc1cc(-c2nnc(NC3N=C(c4ccccc4)c4ccccc4NC3=O)o2)on1 (stereo not shown) [Example 74] | < 6.10 | – | – | – | > 50000
28 | O=C1Nc2ccccc2C(c2ccccc2)=NC1Nc1nc2ccccc2o1 (stereo not shown) [Example 100] | < 6.10 | – | – | – | 10000 to 50000
29 | O=C1Nc2ccccc2C(c2ccccc2)=NC1Nc1nnc(-c2cscn2)o1 (stereo not shown) [Example 77] | 6.10 to 6.40 | – | – | – | > 50000
30 | Cc1cccc(-c2nnc(NC3N=C(c4ccccc4)c4ccccc4NC3=O)o2)n1 (stereo not shown) [Example 26] | < 6.10 | – | – | – | > 50000
31 | O=C1Nc2ccccc2C(c2ccccc2)=NC1Nc1nnc(-c2ccccc2)[nH]1 (stereo not shown) [Example 86] | < 6.10 | – | – | – | > 50000
32 | O=C1Nc2ccccc2C(c2ccccc2)=NC1Nc1nnc(-c2cccc3ccccc23)o1 (stereo not shown) [Example 17] | < 6.10 | – | – | – | > 50000
33 | O=C1Nc2ccccc2C(c2ccccc2)=N[C@@H]1Nc1nnc(-c2ccco2)o1 [Example 10a] | 6.10 to 6.40 | – | – | – | > 50000
34 | CC(C)Oc1cccc(-c2nnc(NC3N=C(c4ccccc4)c4ccccc4NC3=O)o2)c1 (stereo not shown) [Example 15] | 6.10 to 6.40 | – | – | – | > 50000
35 | Cn1cc(-c2nnc(NC3N=C(c4ccccc4)c4ccccc4NC3=O)o2)cn1 (stereo not shown) [Example 66] | 6.10 to 6.40 | – | – | – | > 50000
36 | N#Cc1ccc(-c2nnc(NC3N=C(c4ccccc4)c4ccccc4NC3=O)o2)cc1 (stereo not shown) [Example 12] | 6.10 to 6.40 | – | – | – | > 50000
37 | NS(=O)(=O)c1ccc(-c2nnc(NC3N=C(c4ccccc4)c4ccccc4NC3=O)o2)cc1 (stereo not shown) [Example 31] | 6.10 to 6.40 | – | – | – | > 50000
38 | O=C1Nc2ccccc2C(c2ccccc2)=NC1Nc1nnc(-c2cccnn2)o1 (stereo not shown) [Example 62] | < 6.10 | – | – | – | > 50000
39 | O=C1Nc2ccccc2C(c2ccccc2)=NC1Nc1cc(N2CCOCC2)ncn1 (stereo not shown) [Example 93] | < 6.10 | – | – | – | 10000 to 50000
40 | N#Cc1cccc(-c2nnc(NC3N=C(c4ccccc4)c4ccccc4NC3=O)o2)c1 (stereo not shown) [Example 35] | < 6.10 | – | – | – | > 50000
41 | O=C1Nc2ccccc2C(c2ccccc2)=NC1Nc1nnc(-c2ccc(OC(F)(F)F)cc2)o1 (stereo not shown) [Example 30] | < 6.10 | – | – | – | > 50000
